Values belong to the molecule of their own block, whether it stands above or below them.
What was measured:
[1] = stability of rifampin and minocycline in PBS with and without tranexamic acid (Example 14); assay type: physicochemical; details: regardless of temperature (RT about 23° C. and 37° C.)
Method: The mixtures were tested both at room temperature (RT) (about 23° C.) and at 37° C.

[2] = in vitro elution of rifampin and minocycline from p22-27.5 polymers with TXA in release media (Example 15); assay type: physicochemical; details: PBS pH 7.4 without or with TXA 0.05 mg/mL or 5 mg/mL, over 25 hours
Method: B1=PBS pH 7.4; B2=PBS, pH 7.4+TXA (0.05 mg/mL); B3=PBS, pH 7.4+TXA (5 mg/mL).

myofibroblast formation = details: Ajmal et al. (2003) Plast. Reconstr. Surg. 112:1455-1461; cited from earlier work
blood [3] = experiment: in vitro blood clotting time with different amounts of TXA in presence of TYRX (Example 17); assay type: biochemical; details: higher amounts of TXA (1.6 mg TXA vs 200 mg of TXA), in the presence of TYRX
Method: Tests were conducted to compare the time required to induce blood clotting in vitro when different amounts of hemostatic agent is administered in the presence of TYRX (degradable mesh coated with P22-27.5 containing rifampin and minocycline), as shown in FIG. 40. Clotting time was […] when higher amounts of TXA was present (1.6 mg TXA vs 200 mg of TXA), as shown below in FIG. 44.

blood [4] = experiment: in vitro time required to induce blood clotting (Example 18); assay type: biochemical; details: 1.2 mg of TXA alone
Method: Tests were conducted to compare the time required for different hemostatic agents to induce blood clotting in vitro versus the time required to induce blood clotting in vitro when no hemostatic agent is administered. In particular, the time required to induce blood clotting was plotted for blood alone, a polymer in the p22-xx family (P22-27.5-TYRX), Surgicel, a polymer in the p22-xx family (P22-27.5-TYRX) with 1.6 mg of TXA, 1.2 mg of TXA alone and a polymer in the p22-xx family (P22-27.5-TYRX) with X mg of TXA.
Tests were conducted to compare the time required for different hemostatic agents to induce blood clotting in vitro versus the time required to induce blood clotting in vitro when no hemostatic agent is administered. In particular, the time required to induce blood clotting was plotted for blood alone, TYRX, Surgicel, TYRX with 1.6 mg of TXA, 1.2 mg of TXA alone and TYRX with 200 mg of TXA. In this example, TYRX refers to a Glycoprene mesh that is coated with P22-27.5 (a polymer in the P22-X family) containing Rifampin and Minocycline.

[5] = given preoperatively; cited from earlier work

percentage area of rifampin, mixtures with vs without tranexamic acid [1]: substantially the same
elution rates, effect of TXA in the release media [2]: not effected
SMILES: CO[C@H]1/C=C/O[C@@]2(C)Oc3c(C)c(O)c4c(O)c(c(/C=N/N5CCN(C)CC5)c(O)c4c3C2=O)NC(=O)/C(C)=C\C=C\[C@H](C)[C@H](O)[C@@H](C)[C@@H](O)[C@@H](C)[C@H](OC(C)=O)[C@@H]1C [rifampin]

SMILES: O=S(=O)([O-])CCS.[Na+] [MESNA, sodium 2-mercaptoethane sulfonate]
myofibroblast formation (myofibroblast formation): diminish myofibroblast formation

SMILES: NC[C@H]1CC[C@H](C(=O)O)CC1 [tranexamic acid]
Clotting time (blood [3]): increased
time to induce blood clotting (blood [4]): about 19 minutes
time to reach plasma concentrations [5]: 5 to 15 min
